This is an account of results in patent US20090247477A1, “Methods of suppressing uv light-induced skin carcinogenesis” (priority 2005, published 2009).

One experiment relates to PE murine keratinocytes. The following applies: 5 μM for 24 h, UVA 10 J/cm^2, PE cells.
Another experiment concerns glutathione. The following applies: topical extract containing 1 μmol sulforaphane, 24 h, vs vehicle. An excerpt: Female SKH-1 hairless mice (4 weeks old) were obtained from Charles River Breeding Laboratories (Wilmington, Mass.) and were acclimatized in our animal facility for 2 weeks before the start of the experiment. The animals were kept on a 12-h light/12-h dark cycle, 35% humidity, and given free access to water and pelleted AIN 76A diet (Harlan TekLad, free of inducers). All animal experiments were in compliance with the National Institutes of Health Guidelines and were approved by the Johns Hopkins University Animal Care and Use Committee.
The animals were euthanized 24 h later and their dorsal skins were dissected using a rectangular template (2.5×5 cm) and frozen in liquid N2. […] Centrifugation at 14,000 g for 20 min at 4° C. yielded clear supernatant fractions, aliquots of which were used for determination of protein content, enzyme activity, and total glutathione levels as described below for the cell culture experiments.

In experiment [1] the test system is UVB radiation-induced skin tumors. As to the kind of experiment: UVB-induced skin carcinogenesis in high-risk mice, dietary treatment. It counts as in vivo, mouse. To be noted: vs control. On the procedure: Seeds of broccoli (Brassica oleracea italica, cv. DeCicco) were used to grow sprouts as described in Example 1. Growth was arrested after 3 days by plunging sprouts into boiling water and allowed to boil for ˜30 min. This treatment inactivated the endogenous sprout myrosinase and extracted the glucosinolates. […] The powder was mixed with the mouse diet (powdered AIN 76A) to give the equivalent of 10 μmol (low dose) or 50 μmol (high dose) of glucoraphanin per 3 grams of diet.
Body weights and formation of tumors larger than 1 mm in diameter were determined weekly.
UVB radiation was provided by a bank of UV lamps (FS72T12-UVB-HO, National Biological Corporation, Twinsburg, Ohio) emitting UVB (280-320 nm, 65% of total energy) and UVA (320-375 nm, 35% of total energy). The radiant dose of UVB was quantified with a UVB Daavlin Flex Control Integrating Dosimeter and further calibrated with an IL-1400 radiometer (International Light, Newburyport, Mass.).
The animals were irradiated for 20 weeks on Tuesdays and Fridays with a radiant exposure of 30 mJ/cm^2/session. […]
Tumor volumes were determined by measuring the height, length, and width of each mass that was larger than 1 mm in diameter. The average of the three measurements was used as the diameter and the volume was calculated (v=4πr^3/3). All mice were euthanized on the same day and the size and multiplicity of tumors was determined. […]

Method for PE murine keratinocytes: Reactive oxygen intermediates generated by the UV radiation were quantified by the fluorescent probe 2′,7′-dichlorodinitrofluorescein and fluorescence intensity was measured (expressed as a ratio of exposed to non-exposed cells).
PE cells (50,000 per well) were seeded into 24-well plates and grown for 48 h. […] On the day of the experiments, after removing the medium, the cells were incubated with 100 μM 2′,7′-dichlorodinitrofluorescein diacetate in 500 μl of fresh medium (Molecular Probes, Eugene, Oreg.) for 30 min. The medium containing the fluorescent probe was then removed, the cells were washed with DPBS, and exposed to UVA radiation (10 J/cm^2) Control cells were kept in the dark. Cells were detached with trypsin, suspended in 2.0 ml of DPBS, and the intensity of fluorescence was determined in cell suspensions at 520 nm with an excitation of 485 nm in 2-ml cuvettes in a Perkin-Elmer LS50 spectrofluorimeter.

On to `C[S+]([O-])CCCCN=C=S` (stereo not shown) [sulforaphane], for which, in the experiment on PE murine keratinocytes, the “reduction in reactive oxygen intermediates generated by UV radiation” value worked out at 50%. Moreover, in the experiment on glutathione, the “elevation of total glutathione levels in skin” value was approximately 15%.

`C[S+]([O-])CCCC/C(=N\OS(=O)(=O)O)S[C@@H]1O[C@H](CO)[C@@H](O)[C@H](O)[C@H]1O` (stereo partly shown) [glucoraphanin]: the “inhibition in total tumor volume per mouse” value in experiment [1] (high dose) and in experiment [1] (low dose) was 70% in each case.
